Results: ChEMBL document CHEMBL1147927, “Piperazinyl CCR1 antagonists--optimization of human liver microsome stability” (Bioorg Med Chem Lett, 2007)

Assays:
[1] = Metabolic stability in rat liver microsomes; type: ADME, Microsome
[2] = Metabolic stability in human liver microsomes; type: ADME, Microsome
[3] = Metabolic stability in dog liver microsomes; type: ADME, Canis lupus familiaris, Microsome
[4] = Metabolic stability in monkey liver microsomes; type: ADME, Macaca fascicularis, Microsome; settings: cynomolgus monkey
[5] = target: T1, C-C chemokine receptor type 1 (Homo sapiens, UniProt P32246); experiment: Binding Affinity at CCL3
T1 sequence (P32246 whole entry): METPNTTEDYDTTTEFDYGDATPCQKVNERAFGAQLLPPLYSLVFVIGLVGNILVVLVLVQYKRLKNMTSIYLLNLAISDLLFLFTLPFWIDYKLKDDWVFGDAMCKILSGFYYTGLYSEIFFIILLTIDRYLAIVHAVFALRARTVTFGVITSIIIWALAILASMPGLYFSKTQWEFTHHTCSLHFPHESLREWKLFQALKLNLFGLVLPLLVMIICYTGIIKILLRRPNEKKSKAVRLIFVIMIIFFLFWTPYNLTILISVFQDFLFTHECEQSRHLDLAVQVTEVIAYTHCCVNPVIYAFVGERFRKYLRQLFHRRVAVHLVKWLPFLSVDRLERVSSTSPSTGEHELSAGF

[6] = Activity at CCL3 by chemotaxis assay; type: functional
[7] = Bioavailability in dog; type: ADME, organism-based, Canis lupus familiaris; settings: in vivo
[8] = Bioavailability in rat; type: ADME, organism-based; settings: in vivo
[9] = Volume of distribution at steady state in rat; type: ADME, organism-based; settings: in vivo, read-out: Vdss
[10] = Half life in rat; type: ADME, organism-based; settings: in vivo
[11] = Half life in dog; type: ADME, organism-based, Canis lupus familiaris; settings: in vivo
[12] = Volume of distribution at steady state in dog; type: ADME, organism-based, Canis lupus familiaris; settings: in vivo, read-out: Vdss
[13] = Plasma clearance in iv dosed dog; type: ADME, organism-based, Canis lupus familiaris
[14] = Plasma clearance in iv dosed rat; type: ADME, organism-based
[15] = Volume of distribution at steady state in monkey; type: ADME, organism-based, Macaca fascicularis; settings: cynomolgus monkey, in vivo; read-out: Vdss
[16] = Half life in monkey; type: ADME, organism-based, Macaca fascicularis; settings: cynomolgus monkey, in vivo
[17] = Plasma clearance in monkey; type: ADME, organism-based, Macaca fascicularis; settings: cynomolgus monkey
[18] = Bioavailability in monkey; type: ADME, organism-based, Macaca fascicularis; settings: cynomolgus monkey, in vivo

Row | SMILES | CLhep predicted [1] [mL/min/kg] | CLhep predicted [2] [mL/min/kg] | CLhep predicted [3] [mL/min/kg] | CLhep predicted [4] [mL/min/kg] | IC50 [5] [µM] | IC50 [6] [µM] | bioavailability [7] [%] | bioavailability [8] [%] | Vd [9] [L/kg] | half-life [10] [h] | half-life [11] [h] | Vd [12] [L/kg] | clearance [13] [mL/min/kg] | clearance [14] [mL/min/kg] | Vd [15] [L/kg] | half-life [16] [h] | clearance [17] [mL/min/kg] | bioavailability [18] [%]
1 | C[C@@H]1CN(Cc2ccc(F)cc2)[C@@H](C)CN1C(=O)COc1ccc(Cl)cc1NC(=O)NCCN | 24 | 4.9 | 11 | 18 | 0.008 | 0.001 | – | – | – | – | – | – | – | – | – | – | – | –
2 | C[C@@H]1CN(Cc2ccc(F)cc2)[C@@H](C)CN1C(=O)COc1ccc(Cl)cc1C(=O)CCC(=O)O | 31 | 4.7 | 11 | 18 | 0.013 | < 0.0005 | 100 | 9 | 4 | 2.3 | 5.8 | 4.2 | 9.7 | 42 | – | – | – | –
3 | C[C@@H]1CN(Cc2ccc(F)cc2)CCN1C(=O)COc1ccc(Cl)cc1NC(N)=O [BX 471 FREE BASE] | 62 | 16 | 28 | 42 | – | 0.004 | – | 2 | 1.7 | 0.7 | 4 | 0.6 | 1.7 | 33 | 0.6 | 0.8 | 8.9 | –
4 | C[C@@H]1CN(Cc2ccc(F)cc2)CCN1C(=O)COc1ccc(Cl)cc1 | 63 | 14 | 27 | 40 | 0.86 | 0.086 | – | – | – | – | – | – | – | – | – | – | – | –
5 | C[C@@H]1CN(Cc2ccc(F)cc2)[C@@H](C)CN1C(=O)COc1ccc(Cl)cc1C(=O)O | 20 | 4.7 | 11 | 31 | 0.059 | 0.068 | – | – | 2.4 | 14 | 11 | 0.2 | 0.2 | 2.4 | 0.9 | 5.9 | 3.4 | –
6 | C[C@@H]1CN(Cc2ccc(F)cc2)[C@@H](C)CN1C(=O)COc1ccc(Cl)cc1CS(=O)(=O)O | 21 | 4.7 | 11 | 18 | 0.023 | 0.003 | 100 | 40 | 2.6 | 4.6 | 21 | 0.4 | 0.2 | 17 | 2.1 | 1.1 | 51 | 19
7 | C[C@@H]1CN(Cc2ccc(F)cc2)[C@@H](C)CN1C(=O)COc1ccc(Cl)cc1C(=O)NCCN | 22 | 5.9 | 25 | 36 | 0.03 | 0.003 | – | – | 7.7 | 1 | – | – | – | 184 | – | – | – | –
8 | C[C@@H]1CN(Cc2ccc(F)cc2)[C@@H](C)CN1C(=O)COc1ccc(Cl)cc1CC(=O)O | 25 | 4.7 | 11 | 18 | 0.038 | 0.002 | – | – | 3.2 | 3.7 | 11 | 0.3 | 0.4 | 5.2 | – | – | – | –
